{"source": "paper PMC12531871", "about": "“Indole-2-carboxamides Optimization for Antiplasmodial Activity” (ACS Bio & Med Chem Au, 2025)", "key": {"[1]": {"system": "female P. falciparum gametocytes", "assay": "P. falciparum dual gamete formation assay (Pf DGFA), female gametocytes", "type": "cell-based", "details": "Plasmodium falciparum, read-out: inhibition against female gametocytes"}, "[2]": {"system": "P. vivax field isolates from Brazil", "assay": "Ex vivo drug susceptibility of P. vivax field isolates", "type": "cell-based", "details": "Plasmodium vivax, ex vivo"}, "[3]": {"assay": "eLogD at pH 7.4, miniaturized shake flask method", "type": "physicochemical", "details": "1-octanol/PBS (1:1, v/v), pH 7.4, pH 7.4, miniaturized shake flask method", "method": "eLogD at pH 7.4 was determined using a miniaturized shake flask method. A solution of a presaturated mixture of 1-octanol and phosphate-buffered saline (PBS) (1:1, v/v) and the test compound (75 μM) was incubated at 25 °C with constant shaking (850 rpm) for 2h. After incubation, the organic and aqueous phases were separated, and samples of each phase were transferred to a plate for dilution. […] The samples were quantitated using LC-MS/MS. The experiment was carried out in duplicate. Propranolol, Amitriptyline, and Midazolam were used as reference standards."}, "[4]": {"system": "P. falciparum field isolates from Brazil", "assay": "Ex vivo drug susceptibility of P. falciparum field isolates", "type": "cell-based, Plasmodium falciparum"}, "[5]": {"system": "P. falciparum Dd2 strain", "assay": "Antiplasmodial activity against resistant P. falciparum Dd2", "type": "cell-based", "details": "Plasmodium falciparum"}, "[6]": {"assay": "Kinetic solubility at pH 7.4", "type": "physicochemical", "details": "phosphate-buffered saline, 25 °C, pH 7.4, aqueous buffer, kinetic from dmso stock; read-out: Kinetic solubility (Sol)", "method": "Kinetic solubility assay was performed using UV–vis detection. […] The samples were filtered using a multiscreen solubility filter plate. The filtrate was diluted by 50% with MeCN. A five-point linearity curve was prepared in PBS/MeCN (1:1, v/v) at 200, 150, 75, 25, and 2.5 μM. Blank, linearity, and test samples (n = 2) were transferred to a UV-readable plate, and the plate was scanned for absorbance. Best-fit calibration curves were constructed using the calibration standards and used to determine the test sample solubility. The experiment was carried out in duplicate. Diethylstilbestrol, Haloperidol, and Diclofenac Sodium were used as reference standards."}, "[7]": {"system": "P. falciparum TM90-2CB strain", "assay": "Antiplasmodial activity against resistant P. falciparum TM90-2CB", "type": "cell-based", "details": "Plasmodium falciparum; resistant strain TM90-2CB; read-out: IC50 ± SD, TM90-2CB"}, "[8]": {"system": "P. falciparum 3D7 clone", "assay": "Ex vivo schizont maturation assay, 3D7 laboratory strain control", "type": "cell-based", "details": "Plasmodium falciparum, ex vivo assay conditions"}, "[9]": {"system": "male P. falciparum gametocytes", "assay": "P. falciparum dual gamete formation assay (Pf DGFA), male gametocytes", "type": "cell-based", "details": "Plasmodium falciparum, read-out: inhibition against male gametocytes"}, "[10]": {"system": "P. falciparum 3D7 strain (Pf3D7)", "assay": "Antiplasmodial activity against P. falciparum 3D7 blood-stage parasites (SYBR Green, 72 h)", "type": "cell-based, Plasmodium falciparum", "details": "Plasmodium falciparum"}, "[11]": {"system": "P. falciparum 7G8 strain", "assay": "Antiplasmodial activity against resistant P. falciparum 7G8", "type": "cell-based", "details": "Plasmodium falciparum; resistant strain 7G8; read-out: IC50 ± SD, 7G8"}, "[12]": {"system": "P. falciparum RF12 strain", "assay": "Antiplasmodial activity against resistant P. falciparum RF12", "type": "cell-based", "details": "Plasmodium falciparum, read-out: IC50 ± SD, RF12"}, "[13]": {"assay": "Resazurin assay for cytotoxicity in HepG2 cells", "type": "cell-based, human", "details": "human, HepG2 cells; HepG2 cell line, 72 h, resazurin", "method": "HepG2 cells were trypsinized, counted, and distributed in a 96-well plate at a density of 30,000 cells per well (180 μL). The plate was incubated at 37 °C and 5% CO2 for 24 h. Following incubation, 20 μL of serial dilutions of the tested compounds were added to the wells, with concentrations ranging from 30 to 0.47 μM. The plate was incubated for an additional 72 h at 37 °C and 5% CO2. Untreated cells served as positive controls, while wells containing only medium were used as negative controls. Postincubation, microscopy was employed to determine the highest compound concentration for treatment results. […] Concentration–response curves were generated, and half-maximal inhibitory concentration (CC50) values were determined using nonlinear regression analysis."}, "[14]": {"system": "P. falciparum K1 strain", "assay": "Antiplasmodial activity against resistant P. falciparum K1", "type": "cell-based", "details": "Plasmodium falciparum"}, "[15]": {"system": "P. falciparum NF54 strain", "assay": "Antiplasmodial activity against P. falciparum NF54 (SYBR Green, 72 h)", "type": "cell-based, Plasmodium falciparum", "details": "Plasmodium falciparum, NF54, drug-sensitive NF54, strain panel; read-out: IC50 ± SD, NF54"}, "[16]": {"system": "P. falciparum (3D7 strain) digestive vacuole", "assay": "Digestive vacuole homeostasis, acridine orange fluorescence", "type": "cell-based, Plasmodium falciparum", "details": "10 μM, 3 min treatment, isolated parasites", "method": "The sample was incubated for 40 min at 37 °C. […] Fluorescence was measured in a Hitachi F-7000 fluorimeter (Tokyo, Japan) by continuous measurement of the fluorescence (λex = 488 nm; λem = 560 nm) at 37 °C. Experiments were performed in triplicate."}, "[17]": {"system": "P. falciparum Dd2 (chloroquine resistance)", "assay": "Effect of verapamil on inhibitory activity in P. falciparum Dd2", "type": "cell-based", "details": "Plasmodium falciparum; Dd2, absence of verapamil; read-out: IC50^Dd2 (without VP)"}, "[18]": {"assay": "Rat hepatocyte stability", "type": "in vitro ADME", "details": "rat hepatocyte stability", "method": "The reaction was terminated with the addition of ice-cold MeCN at designated time points. The samples were then centrifuged (4200 rpm) for 20 min at 20 °C, and the supernatant was half diluted in water and then analyzed using LCMS/MS. The % parent compound remaining, half-life (t 1/2), and clearance (CLint) were calculated using standard methodology. The experiment was carried out in duplicate. Diltiazem, 7-Ethoxy Coumarin, Propranolol, and Midazolam were used as reference standards."}, "[19]": {"assay": "Human liver microsome stability", "type": "in vitro ADME", "details": "human, pooled human liver microsomes, human microsomal intrinsic clearance; read-out: hMics, human microsome Clint", "method": "A solution of the test compounds in phosphate buffer solution (1 μM) was incubated in pooled human or mouse liver microsomes (0.5 mg/mL) for 0, 5, 20, 30, 45, and 60 min at 37 °C in the presence and absence of an NADPH regeneration system (NRS). The tests were conducted by […], India. The reaction was terminated with the addition of ice-cold acetonitrile, containing a […] standard, at designated time points. The sample was centrifuged (4200g) for 20 min at 20 °C and the supernatant was diluted by half in water and then analyzed by LC-MS/MS. The % parent compound remaining, half-life (t 1/2) and clearance (CLint) were calculated using standard methodology. The experiment was carried out in duplicate. Verapamil, diltiazem, phenacetin, and imipramine were used as reference standards."}, "[20]": {"system": "synchronized P. falciparum parasites (3D7 strain)", "assay": "P. falciparum asexual blood stage-specificity assay (8 h exposures)", "type": "cell-based, Plasmodium falciparum"}, "[21]": {"system": "P. falciparum 3D7 (chloroquine-sensitive)", "assay": "Effect of verapamil on inhibitory activity in P. falciparum 3D7", "type": "cell-based", "details": "Plasmodium falciparum"}}, "note": "Read-outs that look alike come from different tables or passages of the source.", "data": [{"smiles": "O=C(c1cc2cc(C(F)(F)F)ccc2[nH]1)N(Cc1cccnc1)CC1CCNC1", "note": "(stereo not shown) [Compound 6f, N-(3-Pyridylmethyl)-N-(pyrrolidin-3-ylmethyl)-5-(trifluoromethyl)-1H-indole-2-carboxamide]", "values": [{"measurement": "inhibition at 1 µM", "setting": "[1]", "result": 7, "unit": "%"}, {"measurement": "IC50", "setting": "[2]; 9 clinical isolates, read-out: median IC50 (range), P. vivax (9)", "result": 698, "unit": "nM"}, {"measurement": "EC50", "setting": "[2]; read-out: median EC50 against P. vivax field isolates", "result": 698, "unit": "nM"}, {"measurement": "EC50", "setting": "[2]; read-out: range of EC50 across individual P. vivax isolates", "result": "636 to 910", "unit": "nM"}, {"measurement": "logD at 2 h", "setting": "[3]", "result": 1.1}, {"measurement": "IC50", "setting": "[4]; Plasmodium falciparum, 7 clinical isolates, ex vivo, read-out: median IC50 (range), P. falciparum (7)", "result": "> 10", "unit": "µM"}, {"measurement": "activity against P. falciparum field isolates", "setting": "[4]; concentration of 10 μM", "result": "inactive"}, {"measurement": "IC50", "setting": "[5]; 3D7 / DD2, resistant Dd2, in parallel with 3D7, read-out: IC50^Dd2 ± SD", "result": "> 10000", "unit": "nM"}, {"measurement": "IC50", "setting": "[5]; resistant strain Dd2, strain panel, read-out: IC50 ± SD, Dd2", "result": "2600 ± 400", "unit": "nM"}, {"measurement": "solubility kinetic at 2 h", "setting": "[6]", "result": 195, "unit": "µM"}, {"measurement": "IC50", "setting": "[7]", "result": "2800 ± 500", "unit": "nM"}, {"measurement": "EC50", "setting": "[8]; 3D7, read-out: EC50 against the P. falciparum 3D7 clone", "result": 363, "unit": "nM"}, {"measurement": "IC50", "setting": "[8]; 3D7 control, read-out: P. falciparum 3D7 IC50", "result": 363, "unit": "nM"}, {"measurement": "inhibition at 1 µM", "setting": "[9]", "result": 28, "unit": "%"}, {"measurement": "IC50", "setting": "[10]; 3D7, 72 h, 3D7 strain, 72 h, SYBR Green, read-out: Pf3D7-IC50", "result": "400 ± 100", "unit": "nM"}, {"measurement": "IC50", "setting": "[10]; 3D7, drug-sensitive 3D7, strain panel, read-out: IC50 ± SD, 3D7", "result": "400 ± 100", "unit": "nM"}, {"measurement": "IC50", "setting": "[10]; 3D7 / DD2, sensitive 3D7, in parallel with K1 and Dd2, read-out: IC50^3D7 ± SD", "result": "400 ± 200", "unit": "nM"}, {"measurement": "IC50", "setting": "[11]", "result": "1800 ± 300", "unit": "nM"}, {"measurement": "IC50", "setting": "[12]", "result": "2000 ± 300", "unit": "nM"}, {"measurement": "CC50 at 72 h", "setting": "[13]", "result": "> 30", "unit": "µM"}, {"measurement": "IC50", "setting": "[14]; 3D7 / K1, resistant K1, in parallel with 3D7, read-out: IC50^K1 ± SD", "result": "4.5 ± 0.2", "unit": "µM"}, {"measurement": "IC50", "setting": "[14]; resistant strain K1, strain panel, read-out: IC50 ± SD, K1", "result": "7.3 ± 0.2", "unit": "µM"}, {"measurement": "IC50", "setting": "[15]", "result": "370 ± 60", "unit": "nM"}, {"measurement": "effect on digestive vacuole H+ homeostasis (acridine orange fluorescence)", "setting": "[16]", "result": "interferes with proton (H^+) homeostasis"}, {"measurement": "IC50", "setting": "[17]", "result": 4.03, "unit": "µM"}, {"measurement": "R Heps (Clint)", "setting": "[18]", "result": 2.6, "unit": "μL/min/10^6"}, {"measurement": "microsomal CLint at 1 μM", "setting": "[19]", "result": 11, "unit": "µL/min/mg"}, {"measurement": "timing of peak activity (lowest IC50^8h) in asexual blood stages", "setting": "[20]", "result": "increased potency on the early ring forms"}, {"measurement": "IC50", "setting": "[21]; 3D7, verapamil experiment, read-out: IC50 in 3D7 strain", "result": "~200", "unit": "nM"}, {"measurement": "IC50", "setting": "[21]; read-out: IC50^3D7 (10 μM VP), 3D7, presence of 10 μM verapamil", "result": 460, "unit": "nM"}, {"measurement": "IC50", "setting": "[21]; 3D7, absence of verapamil, read-out: IC50^3D7 (without VP)", "result": 196, "unit": "nM"}]}]}
